“And” between values parts separate entries of the source, which are not always exact repeats. Equal entries are not always repeated. “Also recorded” adds a separate entry of the source. Marks after values point to notes of the source that are not given here.
Assays:
Assay type in all cases: cell-based, human
DPH2 gene [1] = assay: DT resistant colony count after DPH2 gene editing; details: DPH2 assay (integr. vs. k.o.); for # of DT resistant colonies (40,000 seeded cells): MCF7, individual samples A-D
Procedure: (§1) MCF7 cells (Brooks, et al. 1973) were originally obtained from ATCC (subsequently propagated in an in-house cell bank) and maintained in RPMI […] medium supplemented with 10% FCS, 2 mM L-Glutamine and penicillin/streptomycin at 37° C. and 85% humidity. For transfection of plasmids harboring gene-editing modules, 3,000,000 cells were seeded in a 10 cm diameter culture dish and cultivated at 37° C. and humidified 5% CO2. 24 h after seeding, cells were transfected with 20 μg total DNA using JetPEI (Polyplus) according to the manufacturer's protocol but with an N/P ratio of 6:1. Transfection efficiency was determined after 24 h by flow cytometry (FACS Calibur, BD biosciences) of cells that were transfected with a modified eGFP expression plasmid (Zhang, et al. 1996).
(§2) Plasmids encoding CRISPR/Cas9 gene-editing entities (i.e. knock-out and integration systems) against Dph1 (gRNA target sequence: […] (SEQ ID NO: 01) derived from RefSeq: NM_001383) and Dph2 (gRNA target sequence: […] (SEQ ID NO: 02) derived from RefSeq: NM_001039589, NM_001384), and scrambled control (gRNA sequence: […] (SEQ ID NO: 03)) were obtained from OriGene. This system comprises one plasmid expressing a ˜100 nt gRNA under control of a U6 promoter as well as Cas9 nuclease under control of a CMV promoter and a Donor plasmid with a promoter-less GFP/PM expression cassette flanked by homologous arms to the target gene (Dph1 or Dph2). Additional Dph1 gRNA sequence variants of different sizes (OriGene) […]
(§3) MCF7 cells which have all chromosomal copies of DPH1 or DPH2 inactivated are resistant to diphtheria toxin (Stahl, et al. 2015). Thus, occurrence and frequency of toxin resistant cells/colonies upon CRISPR/Cas inflicted gene inactivation provides a measure for efficiency of inactivation of all gene copies. Therefore, MCF/cells were transfected as described in Example 1 with (i) a GFP expression plasmid as transfection control, (ii) the CRISPR/Cas9 Dph1 or Dph2 knock-out/integration system and (iii) knock-out/integration entities containing a scrambled gRNA to determine Cas9 independent integration frequencies. After determination of transfection efficiency, cells were seeded in 6-well plates. For quantification of homozygous knock-out events by DT 20000 cells were seeded and for quantification of integration events by PM or both events 40000 cells were seeded. RPMI medium was exchanged by RPMI medium containing DT or PM or both toxins 3 days after cell seeding. Exchange of medium was repeated every 2-3 days until all dead cells were removed from the plates and actively growing colonies could be detected via microscopic inspection. Thereafter (between day 12 and day 14 after start of toxin exposure), cells were washed 3 times with PBS and subsequently stained with ice cold methylene blue (0.2% in 50% EtOH). Methylene blue solution was subsequently removed and the plates were carefully washed under running water. Finally, cell colonies were counted under the microscope with a 5 mm grid foil.

DPH2 gene [2] = assay: PM resistant colony count after DPH2 gene editing; details: DPH2 assay (integr. vs. k.o.); for # of PM resistant colonies (40,000 seeded cells): MCF7, individual samples A-D
Procedure: as §1, §2, §3
(§4) CRISPR/Cas module for targeted integration contains a puromycin (PM) resistance gene expression cassette without promoter to avoid transient expression. Thus, detection of integration of recombinant sequences into the genome was detected by determining sensitivity of cells towards PM. A concentration of […] PM (which quantitatively eliminates wildtype MCF7 cells) was applied to select MCF7 cells with stably integrated expression cassettes. PM-resistant colonies selected with the same procedure as described above for the DT selection and visualized and quantified (between 12 and 14 days after start of selection) in the same manner as described above for toxin resistant colonies. Number of PM resistant colonies obtained with non-target guide sequences (scrambled gRNA, FIG. 1) reflect the nonspecific integration background. […]

DPH1 gene [3] = assay: DT resistant colony count after DPH1 gene editing (homozygous gene inactivation); details: DPH1 (gRNA length), TF eff. = 31%; for # of DT resistant colonies (20,000 seeded cells): MCF7, individual samples A-D
Procedure: as §1, §2, §3
MCF7 cells which have all chromosomal copies of DPH1 inactivated are DT resistant. Thus, occurrence and frequency of DTr colonies upon ZFN inflicted gene inactivation and/or cassette integration provides a measure for efficacy of inactivation of all gene copies. The ZFN recognition sequence ([…], cleavage site, SEQ ID NO: 10) are derived from NM_001383.3 (DPH1-wt) and were obtained from Sigma Aldrich. A PAC integration cassette for this position was obtained from OriGene. MCF7 cells were transfected as described above with (i) a GFP expression plasmid, (ii) the plasmid encoding DPH1-targeting ZFN and (iii) the DPH1-targeting PAC-integration cassette. After determination of transfection efficiency, cells were seeded in 6-well plates. For quantification of homozygous knock-out events (DTr) 20,000 cells were seeded, 40,000 cells for quantification of integration events (PMr) or double resistances. […]

DPH1 gene [4] = assay: PM resistant colony count after DPH1 gene editing (PAC cassette integration); details: for # of PM resistant colonies (40,000 seeded cells): MCF7, individual samples A-D
Procedure: as §1, §2
as §3, with “For quantification of homozygous knock-out events by DT 20000 cells were seeded and for quantification of integration events by PM or both events 40000 cells were seeded.” left out
as §4, with “background. Increase in colonies (above nonspecific background) obtained with target-gene gRNAs which are PM-resistant but toxin sensitive reflect integration into just one target allele, leaving the other dph1 or dph2 allele unaffected.” for “background.”

DPH1 gene [5] = assay: DT + PM double resistant colony count after DPH1 gene editing (integration with inactivation); details: DPH1 (gRNA length), TF eff. = 31%; for # of DT + PM resistant colonies (40,000 seeded cells): MCF7, individual samples A-D
Procedure: MCF7 cells (Brooks, et al. 1973) were originally obtained from ATCC (subsequently propagated in an in-house cell bank) and maintained in RPMI 1641 medium supplemented with 10% FCS, 2 mM L-Glutamine and penicillin/streptomycin at 37° C. and 85% humidity. For transfection of plasmids harboring gene-editing modules, 3,000,000 cells were seeded in a 10 cm diameter culture dish and cultivated at 37° C. and humidified 5% CO2. 24 h after seeding, cells were transfected with 20 μg total DNA using JetPEI (Polyplus) according to the manufacturer's protocol but with an N/P ratio of 6:1. Transfection efficiency was determined after 24 h by flow cytometry (FACS Calibur, BD biosciences) of cells that were transfected with a modified eGFP expression plasmid (Zhang, et al. 1996).
CRISPR/Cas module for targeted integration contains a puromycin (PM) resistance gene expression cassette without promoter to avoid transient expression. Thus, detection of integration of recombinant sequences into the genome was detected by determining sensitivity of cells towards PM. A concentration of 500 ng/μL PM (which quantitatively eliminates wildtype MCF7 cells) was applied to select MCF7 cells with stably integrated expression cassettes. PM-resistant colonies selected with the same procedure as described above for the DT selection and visualized and quantified (between 12 and 14 days after start of selection) in the same manner as described above for toxin resistant colonies. Number of PM resistant colonies obtained with non-target guide sequences (scrambled gRNA, FIG. 1) reflect the nonspecific integration background. Increase in colonies (above nonspecific background) obtained with target-gene gRNAs which are PM-resistant but toxin sensitive reflect integration into just one target allele, leaving the other dph1 or dph2 allele unaffected. PM resistant colonies that are also DT resistant have the expression cassette integrated into at least target allele and the other allele either inactivated or inactivated accompanied by yet another integration event.

MCF-7 cells [6] = assay: DT resistant colony count of MCF-7 exposed to SCR7 and/or RS-1 during SpCas9-mediated DPH1 editing
Procedure: (§5) To evaluate and quantify the influence of DNA repair modulators on efficiency and specificity of gene editing, CRISPR/SpCAS9 and DPH1 targeting 20 mer gRNA was combined with compounds that modulate DNA repair mechanisms. The inhibitor Scr7 was applied either 4 hrs before transfection or 18 hrs after transfection of the gene editing modules until […] after transfection to inhibit DNA ligase IV.
SCR7 (1 μM final conc.) or RS-1 (8 μM final conc.) or SCR7+RS-1 (1 μM+8 μM final conc.) were added to MCF7 cells 4 hrs before transfection of the gene editing modules in the ‘early exposure’ setting. For ‘late exposure’ SCR7 (8 µM final conc.) or RS-1 (1 μM final conc.) were added to MCF7 cells 18 hrs after transfection. In both settings, cells were exposed to the modulators until 96 hr after transfection, i.e. ‘early exposure’ consisted of a treatment for a total of 100 hrs, ‘late exposure’ for a total of 78 hrs.
(§6) The system upon which to determine the effects of DNA repair modulators consisted of the CRISPR/SpCas9 modules with DPH1 20 mer gRNA, transfected into MCF7 cells and subjected to subsequent DT and PM selection as described in the previous Examples. Frequencies of DTr, PMr, and double-resistant colonies were recorded to reflect gene inactivation and cassette integration events.

MCF-7 cells [7] = assay: PM resistant colony count of MCF-7 exposed to SCR7 and/or RS-1 during SpCas9-mediated DPH1 editing; details: for mean PMr colonies #seeded cells: 80,000: SpCas9 Dph1 gRNA (20 mer)
Procedure: as §5
SCR7 (1 μM final conc.) or RS-1 (8 μM final conc.) or SCR7+RS-1 (1 μM+8 μM final conc.) were added to MCF7 cells 4 hrs before transfection of the gene editing modules in the ‘early exposure’ setting. […]
as §6

MCF7 = assay: Viability (Promega CTG) assay; details: 1 μM Scr7, 8 μM RS-1, 1 μM+8 μM combined
Procedure: The RAD51-stimulatory compound 1 (RS-1) was applied to modulate homologous recombination (HR) during gene editing. RS-1 (Sigma Aldrich) was dissolved in DMSO to generate a stock solution of 10 mg/ml, which was diluted in RPMI medium just before application to cells.
The DNA ligase IV inhibitor SCR7 was applied to modulate non-homologous end joining (NHEJ) during gene editing. SCR7 (Sigma) was dissolved in DMSO to generate a stock solution of 10 mg/ml, which was diluted in RPMI medium just before application to cells.

MCF-7 cells [8] = assay: DT resistant colony count of MCF-7 exposed to SCR7 and/or RS-1 during SpCas9-mediated DPH1 editing; details: SpCas9 Dph1 gRNA (20 mer); compound added 18 hrs after transfection; RS-1 8 μM, SCR7 1 μM
[9] = listed as Dph2 CRISPR Cas9 gRNA
[10] = listed as 26 mer Dph1 CRISPR Cas9 gRNA
[11] = listed as 26 mer Dph1 CRISPR/Cas9 gRNA
[12] = DPH1 (gRNA length), TF eff. = 31%
[13] = compound added 4 hr before transfection
[14] = compound added 4 hrs before transfection
[15] = compound added 18 hr after transfection

Molecule: 20 mer SpCas9 Dph2 gRNA: Plasmids encoding SpCas9 and Dph2 gRNA (target GATGTTTAGCAGCCCTGCCG, SEQ ID NO: 02) plus donor plasmid
- # of DT resistant colonies (40,000 seeded cells) (unheaded second sub-column: mean) (DPH2 gene [1]; MCF7): 130
- # of DT resistant colonies (40,000 seeded cells) (DPH2 gene [1]): 162 and 227 (2×) and 215
- # of DT resistant colonies (40,000 seeded cells) (DPH2 gene [1]; [9]): 162 and 227 (2×) and 215
- # of PM resistant colonies (40,000 seeded cells) (unheaded second sub-column: mean) (DPH2 gene [2]; MCF7): 1.5
- # of PM resistant colonies (40,000 seeded cells) (DPH2 gene [2]): 0 (2×) and 1 and 3
- # of PM resistant colonies (40,000 seeded cells) (DPH2 gene [2]; [9]): 0 (2×) and 1 and 3

Molecule: 26 mer SpCas9 Dph1 gRNA: Dph1 gRNA sequence variant GCGGAGCAGGGCGGCCGAGACGGCCC with SpCas9 (chemistry not given here)
- # of DT resistant colonies (20,000 seeded cells) (DPH1 gene [3]): 161 and 155 and 176 and 187
- # of DT resistant colonies (20,000 seeded cells) (DPH1 gene [3]; [10]): 161 and 155 and 176
- # of DT resistant colonies (20,000 seeded cells) (DPH1 gene [3]; [11]): 187
- # of DT resistant colonies (20,000 seeded cells) (unheaded second sub-column: mean) (DPH1 gene [3]): 170
- # of PM resistant colonies (40,000 seeded cells) (DPH1 gene [4]; [12]): 12 (2×) and 11 and 9
- # of PM resistant colonies (40,000 seeded cells) (DPH1 gene [4]; DPH1 (gRNA length), TF eff. = 31%, listed as 26 mer Dph1 CRISPR Cas9 gRNA): 12 (2×) and 11
- # of PM resistant colonies (40,000 seeded cells) (DPH1 gene [4]; DPH1 (gRNA length), TF eff. = 31%, listed as 26 mer Dph1 CRISPR/Cas9 gRNA): 9
- # of PM resistant colonies (40,000 seeded cells) (unheaded second sub-column: mean) (DPH1 gene [4]; [12]): 11
- integration efficacy in dependence on gRNA length (DPH1 gene [4]; PMr colonies): Targeted integration clearly above background was observed
- # of DT + PM resistant colonies (40,000 seeded cells) (DPH1 gene [5]): 0 (2×) and 1 (2×)
- # of DT + PM resistant colonies (40,000 seeded cells) (DPH1 gene [5]; [10]): 0 (2×) and 1
- # of DT + PM resistant colonies (40,000 seeded cells) (DPH1 gene [5]; [11]): 1
- # of DT + PM resistant colonies (40,000 seeded cells) (unheaded second sub-column: mean) (DPH1 gene [5]): 1

Molecule: O=C(Nc1ccc(Br)cc1)c1ccc(Br)c(S(=O)(=O)NCc2ccccc2)c1 [RS-1, RAD51-stimulatory compound 1]
- mean DTr colonies #seeded cells: 40,000 (MCF-7 cells [6]; SpCas9 Dph1 gRNA (20 mer), compound added 4 hrs before transfection, RS-1 8 μM, SCR7 1 μM): 201.5
- % DT resistant colonies relative to untreated control (MCF-7 cells [6]; [13]): 100%
- gRNA specific DT-r colonies (gRNA-scRNA) (MCF-7 cells [6]; [14]): 201.5
- % DT resistant colonies relative to untreated control (MCF-7 cells [6]; [15]): 100%
- Mean DT resistant colonies (4 × 40.000 seeded cells) (MCF-7 cells [6]; editing entity SpCas9-scRNA, compound added 4 hrs before transfection): 0
- mean PMr colonies #seeded cells: 80,000 (MCF-7 cells [7]; compound added 4 hrs before transfection, RS-1 8 μM, SCR7 1 μM): 14
- mean PMr colonies #seeded cells: 80,000 (MCF-7 cells [7]; compound added 18 hrs after transfection, RS-1 8 μM, SCR7 1 μM): 15.3
- % PMr relative to DTr colonies (MCF-7 cells [7]; SpCas9 Dph1 gRNA, compound added 18 hrs after transfection, RS-1 8 μM, SCR7 1 μM): 3.0%
- % PM resistant colonies relative to untreated control (MCF-7 cells [7]; [13]): 165%*
- gRNA specific PM-r colonies (gRNA-scRNA) (MCF-7 cells [7]; [14]): 10.2
- % PM resistant colonies relative to untreated control (MCF-7 cells [7]; [15]): 76%
- effect on the growth or viability of MCF7 cells at the applied dose (MCF7): no effect on the growth or viability; also recorded: does not inflict growth inhibitory or toxic effects
- mean DTr colonies #seeded cells: 40,000 (MCF-7 cells [8]): 512.5

— patent US20250250559A1, “METHOD TO ANALYZE AND OPTIMIZE GENE EDITING MODULES AND DELIVERY APPROACHES” (Hoffmann-La Roche Inc., priority 2016, published 2025)
